In patent publication US12558428B2, “Heterobifunctional compounds and their use in treating disease” (Halda Therapeutics OpCo, Inc., priority 2024, dated 2026) one finds GI50 data, which are given here for 30 molecules.

Common to all, as to assay type: cell-based
In assay [1] the test system is T-Rex 293 cells having increased expression of estrogen receptor alpha protein. The assay can be described thus: Cellular growth inhibition assay, T-Rex 293 cells, (+) doxycycline. To be noted: T-REx-293, 72 h, Table 7-A; T-Rex 293 cells with doxycycline (increased ERα expression); 72 hours; CellTiter-Glo; read-out: (+) Dox GI50. The method, boiled down: (§1)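 ERα overexpression was switched on by 3 ng/mL doxycycline in a stably transfected T-Rex 293 clone, while uninduced cells served as the comparison line. Proliferation over 72 h of compound treatment was assessed by ATP luminescence, and GI50 values came from four-parameter curves.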

Assay [2] deals with MCF7 cells (ATCC #HTB-22). The assay can be described thus: Cellular growth inhibition assay, MCF7 cells purchased from ATCC. To be noted: Homo sapiens, MCF7, 144 h, Table 8-A; MCF7 cells purchased from ATCC; six days; CellTiter-Glo; read-out: GI50. The method, boiled down: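 MCF7 cells in RPMI 1640 with 10% FBS and 0.2 U/ml insulin, seeded at 1,500 cells/well (ATCC) or 225 cells/well (ECACC). Compounds added 24 h later, then 6 days at 37° C. Viability by CellTiter-Glo 2.0 luminescence. GI50 from four-parameter fit.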
In general terms: ATP-based viability assays read luminescence as a measure of living cells.

Assay [3] deals with T-Rex 293 cells lacking increased expression of estrogen receptor alpha protein. The assay can be described thus: Cellular growth inhibition assay, T-Rex 293 cells, (−) doxycycline. The note with it: T-REx-293, 72 h, Table 7-A; T-Rex 293 cells without doxycycline (lacking increased ERα expression); 72 hours; CellTiter-Glo; read-out: (−) Dox GI50. The essentials: as §1

`CC1=C(c2c(F)cc(F)cc2F)[C@H](c2ccc(OCCN3CCC[C@]4(CCN(c5ccc(C6=N[C@@H](C)c7nnc(C)n7-c7sc(C)c(C)c76)cc5)C4)C3)cc2)Oc2ccc(O)cc21` [V-7]: the GI50 – broadly, the concentration at which growth is held to half of that of the control – in assay [1] is less than 0.05 µM; in assay [2], 0.05 to 0.5 µM; in assay [3], 0.05 to 0.5 µM.

With `CC1=C(c2c(F)cc(F)cc2F)[C@H](c2ccc(OCCN3CCC[C@@]4(CCN(c5ccc(C6=N[C@@H](C)c7nnc(C)n7-c7sc(C)c(C)c76)cc5)C4)C3)cc2)Oc2ccc(O)cc21` [V-8], the GI50 in assay [1] is less than 0.05 µM; in assay [2], 0.05 to 0.5 µM; in assay [3], 0.5 to 2.5 µM.

Turning to `CC1=C(c2c(F)cc(F)cc2F)[C@@H](c2ccc(OCCN3CCC[C@]4(CCN(c5ccc(C6=N[C@@H](C)c7nnc(C)n7-c7sc(C)c(C)c76)cc5)C4)C3)cc2)Oc2ccc(O)cc21` [V-9], the values for the GI50 in assay [1], in assay [2] and in assay [3] were greater than 2.5 µM, 0.05 to 0.5 µM and 0.5 to 2.5 µM, respectively.

Take `CC1=C(c2c(F)cc(F)cc2F)[C@@H](c2ccc(OCCN3CCC[C@@]4(CCN(c5ccc(C6=N[C@@H](C)c7nnc(C)n7-c7sc(C)c(C)c76)cc5)C4)C3)cc2)Oc2ccc(O)cc21` [V-10]: the GI50 in assay [1], in assay [2] and in assay [3] was 0.5 to 2.5 µM in each case.

In the case of `CC1=C(c2c(F)cc(F)cc2F)C(c2ccc(N3CCN(CC4CCN(c5ccc(C6=N[C@@H](C)c7nnc(C)n7-c7sc(C)c(C)c76)cc5)CC4)CC3)cc2)Oc2ccc(O)cc21` (stereo partly drawn) [V-11], the values for the GI50 in assay [1], in assay [2] and in assay [3] were 0.05 to 0.5 µM, 0.05 to 0.5 µM and 0.5 to 2.5 µM, respectively.

With `CC1=C(c2c(F)cc(F)cc2F)[C@H](c2ccc(C3CCN(CC4CCN(c5ccc(C6=N[C@@H](C)c7nnc(C)n7-c7sc(C)c(C)c76)cc5)CC4)CC3)cc2)Oc2ccc(O)cc21` [V-12], the GI50 in assay [1] was less than 0.05 µM; in assay [2], 0.05 to 0.5 µM; in assay [3] it was 0.05 to 0.5 µM.

Consider `CC1=C(c2c(F)cc(F)cc2F)[C@@H](c2ccc(C3CCN(CC4CCN(c5ccc(C6=N[C@@H](C)c7nnc(C)n7-c7sc(C)c(C)c76)cc5)CC4)CC3)cc2)Oc2ccc(O)cc21` [V-13], for which the GI50 in assay [1], in assay [2] and in assay [3] was 0.05 to 0.5 µM throughout.

Regarding `CC1=C(c2c(F)cc(F)cc2F)[C@@H](c2ccc(N3CCN(C(=O)C4CCN(c5ccc(C6=N[C@@H](C)c7nnc(C)n7-c7sc(C)c(C)c76)cc5)CC4)CC3)cc2)Oc2ccc(O)cc21` [V-14], the results for the GI50 in assay [1], in assay [2] and in assay [3] were 0.05 to 0.5 µM, 0.05 to 0.5 µM and 0.5 to 2.5 µM, respectively.

As to `CC1=C(c2c(F)cc(F)cc2F)[C@H](c2ccc(N3CCN(C(=O)C4CCN(c5ccc(C6=N[C@@H](C)c7nnc(C)n7-c7sc(C)c(C)c76)cc5)CC4)CC3)cc2)Oc2ccc(O)cc21` [V-15], the GI50 in assay [1] was less than 0.05 µM; in assay [2] it was 0.05 to 0.5 µM; in assay [3], 0.05 to 0.5 µM.

Take `CC1=C(c2c(F)cc(F)cc2F)C(c2ccc(OCCN3CCC4(CC3)CCN(c3ccc(C5=N[C@@H](C)c6nnc(C)n6-c6sc(C)c(C)c65)cc3)C4)cc2)Oc2ccc(O)cc21` (stereo partly drawn) [V-16]: the GI50 in assay [1] was in the range of 0.5 to 2.5 µM; in assay [2] it was 0.05 to 0.5 µM; in assay [3], 0.5 to 2.5 µM.

For the molecule `CC1=C(c2c(F)cc(F)cc2F)C(c2ccc(N3CCC4(CCCN(CCOc5ccc(C6=N[C@@H](C)c7nnc(C)n7-c7sc(C)c(C)c76)cc5)C4)C3)cc2)Oc2ccc(O)cc21` (stereo partly drawn) [V-17], the GI50 in assay [1], in assay [2] and in assay [3] was 0.05 to 0.5 µM throughout.

For `CC1=C(c2c(F)cc(F)cc2F)C(c2ccc(N3CCC4(CCN(C(=O)Cc5ccc(C6=N[C@@H](C)c7nnc(C)n7-c7sc(C)c(C)c76)cc5)C4)CC3)cc2)Oc2ccc(O)cc21` (stereo partly drawn) [V-18], the GI50 in assay [1], in assay [2] and in assay [3] was 0.05 to 0.5 µM throughout.

For `CC1=C(c2c(F)cc(F)cc2F)[C@H](c2ccc(N3CCC(CN4CCC5(CC4)CN(c4ccc(C6=N[C@@H](C)c7nnc(C)n7-c7sc(C)c(C)c76)cc4)C5)CC3)cc2)Oc2ccc(O)cc21` [V-19], the GI50 is less than 0.05 µM in assay [1], less than 0.05 µM in assay [2] and 0.5 to 2.5 µM in assay [3].

Consider `CC1=C(c2c(F)cc(F)cc2F)[C@@H](c2ccc(N3CCC(CN4CCC5(CC4)CN(c4ccc(C6=N[C@@H](C)c7nnc(C)n7-c7sc(C)c(C)c76)cc4)C5)CC3)cc2)Oc2ccc(O)cc21` [V-20], for which the GI50 in assay [1] is less than 0.05 µM; in assay [2], 0.05 to 0.5 µM; in assay [3] it was 0.5 to 2.5 µM.

For `CC1=C(c2c(F)cc(F)cc2F)C(c2ccc(N3CCN(CC4CN(c5ccc(C6=N[C@@H](C)c7nnc(C)n7-c7sc(C)c(C)c76)cc5)C4)CC3)cc2)Oc2ccc(O)cc21` (stereo partly drawn) [V-21], the values for the GI50 in assay [1], in assay [2] and in assay [3] were less than 0.05 µM, less than 0.05 µM and 0.05 to 0.5 µM, respectively.

`CC1=C(c2c(F)cc(F)cc2F)[C@@H](c2ccc(N3CCN(CC4CCN(c5ccc(C6=N[C@@H](C)c7nnc(C)n7-c7sc(C)c(C)c76)cc5)CC4)CC3)cc2)Oc2ccc(O)cc21` [V-22]: the GI50 in assay [1] was less than 0.05 µM; in assay [2] it was 0.05 to 0.5 µM; in assay [3], 0.5 to 2.5 µM.

For the molecule `CC1=C(c2c(F)cc(F)cc2F)[C@H](c2ccc(N3CCN(CC4CCN(c5ccc(C6=N[C@@H](C)c7nnc(C)n7-c7sc(C)c(C)c76)cc5)CC4)CC3)cc2)Oc2ccc(O)cc21` [V-23], the GI50 in assay [1] was less than 0.05 µM; in assay [2] it was 0.05 to 0.5 µM; in assay [3] it was 0.5 to 2.5 µM.

`CC1=C(c2c(F)cc(F)cc2F)[C@H](c2ccc(N3CCN(CC4CCN(c5ccc(C6=N[C@H](C)c7nnc(C)n7-c7sc(C)c(C)c76)cc5)CC4)CC3)cc2)Oc2ccc(O)cc21` [V-24]: the GI50 in assay [1], in assay [2] and in assay [3] was greater than 2.5 µM each time.

In the case of `CC1=C(c2c(F)cc(F)cc2F)[C@@H](c2ccc(N3CCN(CC4CCN(c5ccc(C6=N[C@H](C)c7nnc(C)n7-c7sc(C)c(C)c76)cc5)CC4)CC3)cc2)Oc2ccc(O)cc21` [V-25], the GI50 in assay [1], in assay [2] and in assay [3] was greater than 2.5 µM in each case.

On to `CC1=C(c2c(F)cc(F)cc2F)[C@@H](c2ccc(OCC(=O)N3CCC4(CC3)CCN(c3ccc(C5=N[C@@H](C)c6nnc(C)n6-c6sc(C)c(C)c65)cc3)C4)cc2)Oc2ccc(O)cc21` [V-26], for which the 50% growth inhibitory concentration (GI50) in assay [1] was less than 0.05 µM; in assay [2], 0.05 to 0.5 µM; in assay [3], 0.05 to 0.5 µM.

For the molecule `CC1=C(c2c(F)cc(F)cc2F)[C@H](c2ccc(OCC(=O)N3CCC4(CC3)CCN(c3ccc(C5=N[C@@H](C)c6nnc(C)n6-c6sc(C)c(C)c65)cc3)C4)cc2)Oc2ccc(O)cc21` [V-27], the GI50 in assay [1] is less than 0.05 µM; in assay [2], 0.05 to 0.5 µM; in assay [3], 0.5 to 2.5 µM.

With `CC1=C(c2c(F)cc(F)cc2F)C(c2ccc(N3CCN(CC4(O)CCN(c5ccc(C6=N[C@@H](C)c7nnc(C)n7-c7sc(C)c(C)c76)cc5)CC4)CC3)cc2)Oc2ccc(O)cc21` (stereo partly drawn) [V-28], the GI50 in assay [1] is less than 0.05 µM; in assay [2], less than 0.05 µM; in assay [3], 0.05 to 0.5 µM.

Consider `CC1=C(c2c(F)cc(F)cc2F)[C@@H](c2ccc(OCC(=O)N3CCCC4(CCN(c5ccc(C6=N[C@@H](C)c7nnc(C)n7-c7sc(C)c(C)c76)cc5)C4)C3)cc2)Oc2ccc(O)cc21` (stereo partly drawn) [V-29], for which the GI50 in assay [1], in assay [2] and in assay [3] was 0.05 to 0.5 µM in each case.

Consider `CC1=C(c2c(F)cc(F)cc2F)[C@H](c2ccc(OCC(=O)N3CCCC4(CCN(c5ccc(C6=N[C@@H](C)c7nnc(C)n7-c7sc(C)c(C)c76)cc5)C4)C3)cc2)Oc2ccc(O)cc21` (stereo partly drawn) [V-30], for which the 50% growth inhibitory concentration (GI50) in assay [1], in assay [2] and in assay [3] was 0.05 to 0.5 µM in each case.

On to `CC1=C(c2c(F)cc(F)cc2F)[C@H](c2ccc(C3CCN(CC4(O)CCN(c5ccc(C6=N[C@@H](C)c7nnc(C)n7-c7sc(C)c(C)c76)cc5)CC4)CC3)cc2)Oc2ccc(O)cc21` [V-31], for which the GI50 in assay [1] is less than 0.05 µM; in assay [2], 0.05 to 0.5 µM; in assay [3], 0.05 to 0.5 µM.

Regarding `CC1=C(c2c(F)cc(F)cc2F)[C@@H](c2ccc(C3CCN(CC4(O)CCN(c5ccc(C6=N[C@@H](C)c7nnc(C)n7-c7sc(C)c(C)c76)cc5)CC4)CC3)cc2)Oc2ccc(O)cc21` [V-32], the 50% growth inhibitory concentration (GI50) in assay [1] was less than 0.05 µM; in assay [2], 0.05 to 0.5 µM; in assay [3], 0.5 to 2.5 µM.

As for `CC1=C(c2c(F)cc(F)cc2F)[C@H](c2ccc(OCC(=O)N3CCCC4(CCN(c5ccc(C6=N[C@@H](Cc7ncco7)c7nnc(C)n7-c7sc(C)c(C)c76)cc5)C4)C3)cc2)Oc2ccc(O)cc21` (stereo partly drawn) [V-33], the GI50 in assay [1] was less than 0.05 µM; in assay [2], 0.05 to 0.5 µM; in assay [3] it was 0.05 to 0.5 µM.

`CC1=C(c2c(F)cc(F)cc2F)[C@@H](c2ccc(OCC(=O)N3CCCC4(CCN(c5ccc(C6=N[C@@H](Cc7ncco7)c7nnc(C)n7-c7sc(C)c(C)c76)cc5)C4)C3)cc2)Oc2ccc(O)cc21` (stereo partly drawn) [V-34]: the GI50 in assay [1], in assay [2] and in assay [3] was 0.05 to 0.5 µM each time.

Regarding `CC1=C(c2c(F)cc(F)cc2F)[C@H](c2ccc(N3CC(CN4CCN(CC5CN(c6ccc(C7=N[C@@H](C)c8nnc(C)n8-c8sc(C)c(C)c87)cc6)C5)CC4)C3)cc2)Oc2ccc(O)cc21` [V-35], the GI50 is less than 0.05 µM in assay [1], less than 0.05 µM in assay [2] and 0.05 to 0.5 µM in assay [3].

Regarding `CC1=C(c2c(F)cc(F)cc2F)[C@@H](c2ccc(N3CC(CN4CCN(CC5CN(c6ccc(C7=N[C@@H](C)c8nnc(C)n8-c8sc(C)c(C)c87)cc6)C5)CC4)C3)cc2)Oc2ccc(O)cc21` [V-36], the GI50 is less than 0.05 µM in assay [1], 0.05 to 0.5 µM in assay [2] and 0.5 to 2.5 µM in assay [3].
